“Also recorded” adds a separate entry of the source.
Tests used:
[1] = cited from earlier work
CC531 cells = conditions: approximately 24 hour incubation; for Efficacy: MTT; for EC50: global sigmoidal fit of three assays, n=8, ±SD
Method: After approximately 24 hour incubation in the cell incubator, 25 μL of freshly prepared MTT solution (5 mg/mL in PBS, filtered through 0.2 μm filter) was added to the wells and incubated for 2 hours. The medium was then completely removed and replaced with 125 μL 0.04 M HCl in isopropanol and incubated for 1 hour. After gently mixing, 100 μl of the isopropanol solution was transferred to a Costar EIA/RIA 96 transparent flat bottom wells plate. The absorbance was measured at 570 nm with 650 nm as reference. Absorbance of MTT was read out on a Tecan Saffire 2 plate reader and Tecan Spark 10M plate reader. Values were normalized to untreated cells. The complete assay was performed three times for CC531 cells. All data sets were used together to fit a global sigmoidal dose response curve with a shared slope and center, giving one EC50 per cell line. A concatenate fit was plotted through the MTT results for visualization. […] Every experiment n=8, ±SD.

[2] = Release from 10 wt % bifunctional UPy-PEG10k hydrogel into PBS; format: physicochemical
Method: The UPy-PEG10k liquid carrier composition was prepared by dissolving the UPy-PEG10k powder in PBS at elevated pH by stirring at 70° C. for 1 h using a magnetic stirrer (e.g. 10 mg in 90 μl PBS pH 11.7 for a 10 wt % hydrogel). Afterwards the viscous solution was cooled to RT with a resulting pH of approximately 9.0. […] The obtained composition is a liquid composition at this pH.
100 μL of the solutions were transferred to Millicell hanging cell culture inserts (PIEP12R48/MCEP24H48) and immediately placed in a 24-well plate with 600 μL PBS per well. Contact with the neutral PBS through the membrane of the insert results in gelation of the liquid carrier, forming the hydrogel. At set time-points the PBS was refreshed and the removed PBS was analyzed for MMC or MPC content. Analysis was performed by measuring UV absorption and converted to concentration via predetermined standard curves. […] […]. Release of MPC can be correlated to the erosion of the hydrogel. The initial goal to couple cholesterol to MMC to slow down the release from the hydrogel is accomplished hereby.

[3] = Stability measurements by UV absorption in PBS; conditions: 200 mg/L, day 0-13

For `Nc1ccn([C@@H]2O[C@H](CO)[C@@H](O)C2(F)F)c(=O)n1` [Gemcitabine], the Water solubility [1] is given as 51300 µg/mL.

For `COc1cccc2c1C(=O)c1c(O)c3c(c(O)c1C2=O)C[C@@](O)(C(C)=O)C[C@@H]3O[C@H]1C[C@H](N)[C@H](O)[C@H](C)O1` [Daunorubicin], the Water solubility [1] is listed as 39 µg/mL.

With Mitomycin-PEG24-Cholesterol [MPC] the Efficacy (CC531 cells) was “approximately 100%” and the EC50 (CC531 cells) was 3.8 ± 1.1 µM.

In the case of `CO[C@@]12[C@H](COC(N)=O)C3=C(C(=O)C(C)=C(N)C3=O)N1C[C@@H]1N[C@@H]12` [MMC, Mitomycin C], the “Release (%)” value ([2]; 0.3 mM in gel, time 0.05 day) is reported as 38.93%, the “Release (%)” value ([2]; 0.3 mM in gel, time 0.21 day) is reported as 69.58% and the “Release (%)” value ([2]; 0.3 mM in gel, time 1.00 day) is reported as 86.44%. For the same compound, the “Release (%)” value ([2]; 3 mM in gel, time 0.06 day) was 34.09%, the “Release (%)” value ([2]; 3 mM in gel, time 0.17 day) was 58.33% and the “Release (%)” value ([2]; 3 mM in gel, time 0.38 day) was 79.92%. The “Release (%)” value ([2]; 3 mM in gel, time 1.00 day) was 95.83%, the “Release (%)” value ([2]; 3 mM in gel, time 2.00 day) was 102.65% and the “Time of release from the hydrogel” value ([2]; 10 wt % UPy-PEG10k hydrogel, diffusion kinetics) was “approximately 24 hours”. For the same compound, the “Stability (UV absorption spectra)” value ([3]; pH 6.5, 37° C.) was “unstable; also recorded: degrades”, the “Stability (UV absorption spectra)” value ([3]; pH 7.4, 4° C.) was “stable” and the “Stability (UV absorption spectra)” value ([3]; pH 7.4, 37° C.) was “stable”. For the same compound, the Efficacy (CC531 cells) was “approximately 100%” and the EC50 (CC531 cells) was 19.6 ± 3.2 µM.

For `COc1cccc2c1C(=O)c1c(O)c3c(c(O)c1C2=O)C[C@@](O)(C(=O)CO)C[C@@H]3O[C@H]1C[C@H](N)[C@H](O)[C@H](C)O1` [Doxorubicin], the Water solubility [1] is given as 1180 µg/mL.

For `CC(C)CCC[C@@H](C)[C@H]1CC[C@H]2[C@@H]3CC=C4C[C@@H](O)CC[C@]4(C)[C@H]3CC[C@]12C` [Cholesterol], the Water solubility [1] is listed as “Less than 0.000095 mg/mL)”.

Source: patent publication US20200164078A1, “APPLICABLE CHEMICAL COMPOSITION COMPRISING AN AGENT CONJUGATED TO A HYDROPHOBIC MOIETY AND A CARRIER” (TECHNISCHE UNIVERSITEIT EINDHOVEN, priority 2017, published 2020)
